In patent US20030157516A1, “G protein coupled receptor” (priority 2000, published 2003):

Experiments:
wild type CHO cells = assay: [3H]adenine competition binding on wild type CHO membranes; settings: 15 nM [3H]adenine
Protocol: The membranes were prepared as total particulate fractions. […] The culturing medium was removed and the cells were washed twice with ice cold phosphate buffered saline (PBS without Ca^2+ and Mg^2+), scraped from the plates in 50 mM Tris-HCl buffer, pH 7.4, and collected by centrifugation (10 minutes at 16,000 RPM at 4° C.). The cell pellet was re-suspended in hypotonic 5 mM Tris-HCl buffer, pH 7.4, and homogenized with an Ultra Turrax homogenizer (Janker Kunkel, Germany). The homogenate was centrifuged at 18,000 RPM for 20 minutes at 4° C. The final pellet was re-suspended in 50 mM Tris-HCl buffer, pH 7.4 and stored in aliquots at −70° C. A protein determination was performed using the Bradford protein assay (Biorad, Germany) using bovine serum albumin (BSA) as standard.
Membranes were thawed on ice and diluted in 50 mM HEPES buffer, pH 7.4 supplemented with 10 mM MgCl2 and 1 mM EGTA. […] Both assays were carried out in a final volume of 500 μl, using 18 μg of membrane protein for the transfected CHO cells and 30 μg of membrane protein for the wild type CHO cells for the saturation binding. For competition binding experiments, 15 and 50 μg of membrane protein was used for the transfected and wild type cells, respectively. The reaction was terminated by rapid filtration through Whatman GF/B filters using a Brandel multi-channel cell harvester (96 wells). The filters were washed three times with 3 ml ice cold 50 mM HEPES buffer, pH 7.4, transferred to liquid scintillation vials and 3 ml of scintillation fluid (Ultima Gold MV, Packard, Netherlands) was added. Samples were counted in a β-scintillation counter after at least 6 hours to permit the glass fiber filters to become uniformly translucent.

rat adenine binding GPCR = biological target: T1, rat adenine binding GPCR (Rattus norvegicus, UniProt Q7TN49); assay: FLIPR Ca2+ transient assay, agonism, HEK293/Gq chimera cells transiently transfected with rat adenine binding GPCR/pcDNA3; type: cell-based; design: The full length reading frame was inserted into the mammalian expression vector pcDNA3; expressed in transfected cells; host or cells: HEK293 cells stably transfected with pLEC/Gqi or pLEC/Gqo
T1 sequence (Q7TN49 1-304): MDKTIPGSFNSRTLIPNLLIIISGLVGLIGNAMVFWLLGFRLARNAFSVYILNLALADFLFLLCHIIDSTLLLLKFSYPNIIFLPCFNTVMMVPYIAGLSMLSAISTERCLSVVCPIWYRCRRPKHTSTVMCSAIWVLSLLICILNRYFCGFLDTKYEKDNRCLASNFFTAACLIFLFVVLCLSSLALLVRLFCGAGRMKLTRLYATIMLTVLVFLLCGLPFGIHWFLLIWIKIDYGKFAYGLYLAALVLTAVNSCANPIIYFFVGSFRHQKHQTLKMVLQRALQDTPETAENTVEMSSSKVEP
Excerpt: This assay is based around an instrument called a FLuorescence Imaging Plate Reader ((FLIPR®), Molecular Devices Corporation). In its most common configuration, it excites and measures fluorescence emitted by fluorescein-based dyes. It uses an argon-ion laser to produce high power excitation at 488 nm of a fluorophore, a system of optics to rapidly scan the over the bottom of a 96-/384-well plate and a sensitive, cooled CCD camera to capture the emitted fluorescence. It also contains a 96-/384-well pipetting head allowing the instrument to deliver solutions of test agents into the wells of a 96-/384-well plate. The FLIPR assay is designed to measure fluorescence signals from populations of cells before, during and after addition of compounds, in real time, from all 96-/384-wells simultaneously. […] As described below, calcium transients in cells transfected with adenine binding GPCR were measured using the FLIPR assay in order to measure activation of the receptors by various substrates in order to determine the natural ligand of the receptor.
The full length reading frame was inserted into the mammalian expression vector pcDNA3 (Invitrogen, Carlsbad, Calif., U.S.A.) and the resulting expression construct was transiently transfected with the FuGENE 6 reagent (Roche Molecular Biochemicals, Mannheim, Germany) into HEK293 cells stably transfected (E. Bender, unpublished) with pLEC/Gqi or pLEC/Gqo (Molecular Devices, Sunnyvale, Calif., U.S.A.). The cells were loaded with Fluo-4 (Molecular Probes, Eugene, Oreg., U.S.A.) according to the recommendations of the supplier. […]
Using the FLIPR assay as above, calcium transients were measured in both sets of cells with the transients attributable to the novel GPCR measured as the difference between the two transients. Results are illustrated in FIG. 4. […]

Row | calcium transients (agonistic activity) (rat adenine binding GPCR; HEK293/Gaqo cells, 3.3 nM-33 μM, difference to empty-vector cells) | agonism of nucleoside and nucleotide derivatives of adenine (rat adenine binding GPCR; at high concentrations (>3.3 μM)) | Compound | Ki (wild type CHO cells; mean of n experiments) [nM] | pIC50 (wild type CHO cells; mean of n experiments) | pIC50 (wild type CHO cells; single experiments)
1 | dose responsive calcium transient |  | Nc1ncnc2nc[nH]c12 [Adenine, adenine] | 85 | 6.87 | 
2 |  |  | Cn1cnc2ncnc-2c1N [1-Methyladenine] |  | <4 | <4
3 |  | weak partial agonism | Nc1ncnc2c1ncn2[C@@H]1O[C@H](COP(=O)(O)O)[C@@H](O)[C@H]1O [AMP] |  | <4 | <4
